# Measurements: US20220249413A1, “SWELL 1 MODULATORS FOR TREATMENT OF NON-ALCOHOLIC FATTY LIVER DISEASE, IMMUNE DEFICIENCIES, MALE INFERTILITY AND VASCULAR DISEASES” (priority 2019, published 2022)
# Test system: SWELL1 protein
# Assay: SWELL1 protein expression by Western blot in 3T3-F442A preadipocytes and adipocytes
# Format: cell-based
# Settings: 10 μM applied for 96 hours
# Description: For Smod1 (DCPIB) mediated induction of SWELL1 and insulin signaling studies in 3T3-F442A preadipocytes, the cells were incubated with either vehicle (DMSO) or 10 μM Smod1 for 96 h. The cells were serum starved for 6 h (+DMSO or Smod1) and stimulated with 0, 3 and 10 nM insulin containing media (−DMSO or Smod1), as described above for 15 mins and the lysates were collected. In the case of 3T3-F442A adipocytes, the WT and KO cells were treated with either vehicle (DMSO) or 10 μM Smod1 following 7-11 days of differentiation for 96 h and then stimulated with 0 and 10 nM insulin for 15 min, as described above. Human embryonic kidney (HEK) cells were cultured and maintained in 90% DMEM (25 mM D-Glucose and 4 mM L-Glutamine) containing 10% fetal bovine serum (FBS) and 100 IU penicillin and 100 μg/ml streptomycin media.
# Electrophysiology Patch-clamp recordings of β-cells and mature adipocytes were performed as described previously (Zhang et al., Nat Cell Biol, 19, 504-517, 2017; Kang et al., Nature Communications, 9, 367, 2018). 3T3-F442A WT and KO preadipocytes were prepared as described in the Cell culture section above. […] Recordings were measured using Axopatch 200B amplifier paired to a Digidata 1550 digitizer using pClamp 10.4 software. […] The images were further analyzed for band intensities using ImageJ software. […]
structure (smiles),measurement,setting,value
"CCCCC1(C2CCCC2)Cc2cc(OCCCC(=O)O)c(Cl)c(Cl)c2C1=O (centres unmarked) [Smod1, 4-[(2-Butyl-6,7-dichloro-2-cyclopentyl-2,3-dihydro-1-oxo-1H-inden-5-yl)oxy]butanoic acid]",increase of SWELL1 protein expression,3T3-F442A adipocytes,1.5 fold
same,increase of SWELL1 protein expression,3T3-F442 preadipocytes,β
